Test results published in DBAASP.
In brackets after ≈: the same amount, converted by molar mass.

How the values were obtained:
Assay in all cases: ≥ marks a high value that may be exact or a test limit, other limits are often not marked, values filed in µg/mL are converted to µM
[1] = test system: Listeria innocua
[2] = test system: Streptococcus uberis
[3] = test system: Pasteurella multocida
[4] = test system: Staphylococcus aureus ATCC 29213
[5] = test system: Leuconostoc lactis
[6] = test system: Pseudomonas aeruginosa
[7] = test system: Escherichia coli
[8] = test system: Micrococcus luteus
[9] = test system: Staphylococcus aureus ATCC 25923
[10] = test system: Staphylococcus epidermidis
[11] = test system: Bacillus cereus
[12] = test system: Enterobacter cloacae
[13] = test system: Enterococcus faecalis
[14] = test system: Staphylococcus aureus
[15] = test system: Bacillus anthracis
[16] = test system: Staphylococcus aureus ATCC 43300
[17] = test system: Salmonella enterica subsp. enterica serovar Typhimurium ATCC 14028
[18] = test system: Salmonella enterica subsp. enterica serovar Pullorum C79-13
[19] = test system: Streptococcus agalactiae
[20] = test system: Salmonella enterica subsp. enterica serovar Typhimurium C77-31
[21] = test system: Escherichia coli ATCC 25922
[22] = test system: Escherichia coli UB1005
[23] = test system: Salmonella enterica subsp. enterica serovar Choleraesuis CVCC 503
[24] = test system: Enterococcus faecalis ATCC 29212
[25] = test system: Staphylococcus epidermidis ATCC 12228
[26] = test system: Bacillus subtilis
[27] = test system: Pseudomonas aeruginosa ATCC 27853
[28] = test system: Salmonella enterica subsp. enterica serovar Typhi
[29] = test system: Candida albicans ATCC 90028
[30] = test system: Escherichia coli B
[31] = test system: Bacillus subtilis 168
[32] = test system: Staphylococcus aureus AS1.72
[33] = test system: Enterococcus faecium CGMCC 1.2334
[34] = test system: Escherichia coli AS1.349
[35] = test system: Bacillus cereus AS1.126
[36] = test system: Lactococcus lactis AS1.1690
[37] = test system: Pseudomonas aeruginosa CGMCC 1.860
[38] = test system: Enterococcus faecalis CGMCC 1.595

CC[C@H](C)[C@H](NC(=O)[C@@H](NC(=O)[C@@H]1CCCN1C(=O)[C@H](C)NC(=O)[C@@H](NC(=O)[C@H](Cc1cnc[nH]1)NC(=O)[C@@H]1CCCN1C(=O)[C@H](CC(C)C)NC(=O)[C@H](CC(C)C)NC(=O)[C@H](Cc1cnc[nH]1)NC(=O)[C@H](CCCCN)NC(=O)[C@H](C)NC(=O)[C@@H](NC(=O)[C@H](CO)NC(=O)CNC(=O)[C@H](CC(C)C)NC(=O)[C@@H](NC(=O)[C@H](CO)NC(=O)[C@H](Cc1ccccc1)NC(=O)[C@H](CC(C)C)NC(=O)CN)C(C)C)C(C)C)C(C)C)[C@@H](C)CC)C(=O)N[C@@H](C)C(=O)N[C@@H](CCC(=O)O)C(=O)N[C@@H](CCCCN)C(=O)N[C@@H](CC(C)C)C(N)=O [GLFSVLGSVAKHLLPHVAPIIAEKL]
MIC [1]: 9.58 µM (≈ 25 µg/mL)
MIC [2]: 9.58 µM (≈ 25 µg/mL)
MIC [3]: 9.58 µM (≈ 25 µg/mL)
MIC [4]: 4.6 µM (≈ 12 µg/mL)
MIC [5]: 1.15 µM (≈ 3 µg/mL)
MIC [6]: > 38.3 µM
MIC [7]: > 38.3 µM
MIC [8]: 4.6 µM (≈ 12 µg/mL)
MIC [9]: 19.2 µM (≈ 50 µg/mL)
MIC [10]: 4.6 µM (≈ 12 µg/mL)
MIC [11]: ≥ 38.3 µM
MIC [12]: ≥ 38.3 µM
MIC [13]: ≥ 38.3 µM

CC(C)C[C@H](NC(=O)[C@H](CCCCN)NC(=O)[C@H](Cc1ccccc1)NC(=O)[C@H](CC(C)C)NC(=O)[C@@H](NC(=O)[C@@H]1CCCN1C(=O)[C@@H](N)CC(C)C)C(C)C)C(=O)N[C@@H](C)C(=O)N[C@@H](CO)C(=O)N[C@@H](CCCCN)C(=O)N[C@H](C(=O)N[C@@H](Cc1ccccc1)C(=O)N1CCC[C@H]1C(=O)N[C@@H](C)C(=O)N[C@H](C(=O)N[C@@H](Cc1ccccc1)C(=O)N[C@@H](CO)C(=O)N[C@@H](CO)C(=O)N[C@@H](CC(C)C)C(=O)N[C@@H](CCCCN)C(=O)O)C(C)C)C(C)C [LPVLFKLASKVFPAVFSSLK]
MIC [14]: 58.4 µM (≈ 128 µg/mL)
MIC [7]: 117 µM (≈ 256 µg/mL)
MIC [15]: ≥ 58.4 µM
MIC [11]: 29.2 µM (≈ 64 µg/mL)

CC[C@H](C)[C@H](NC(=O)[C@H](CC(C)C)NC(=O)[C@H](CCCCN)NC(=O)[C@H](CCSC)NC(=O)[C@@H](NC(=O)[C@H](C)NC(=O)[C@H](C)NC(=O)[C@H](CCCN=C(N)N)NC(=O)[C@H](CCCCN)NC(=O)[C@H](Cc1ccccc1)NC(=O)[C@H](Cc1ccccc1)NC(=O)[C@H](CC(C)C)NC(=O)[C@@H](NC(=O)[C@H](C)NC(=O)CNC(=O)[C@@H](NC(=O)[C@H](CO)NC(=O)[C@@H]1CCCN1C(=O)[C@@H](NC(=O)[C@@H](N)CO)C(C)C)C(C)C)C(C)C)C(C)C)C(=O)O [SVPSVGAVLFFKRAAVMKLI]
MIC [14]: > 120 µM
MIC [7]: > 120 µM
MIC [15]: ≥ 120 µM
MIC [11]: ≥ 120 µM

CC(C)[C@H](N)C(=O)N[C@@H](CS)C(=O)N[C@@H](CCCN=C(N)N)C(=O)N[C@@H](CCCCN)C(=O)N1CCC[C@H]1C(=O)N[C@H](C(=O)N[C@H](C(=O)N[C@@H](CS)C(=O)N[C@@H](CCCN=C(N)N)C(=O)N[C@@H](CCCCN)C(=O)N1CCC[C@H]1C(=O)N[C@H](C(=O)N[C@H](C(=O)N[C@@H](CS)C(=O)N[C@@H](CCCN=C(N)N)C(=O)N[C@@H](CCCCN)C(=O)N1CCC[C@H]1C(=O)N[C@H](C(=O)N[C@H](C(=O)N[C@@H](CS)C(=O)N[C@@H](CCCN=C(N)N)C(=O)N[C@@H](CCCCN)C(=O)N1CCC[C@H]1C(=O)N[C@H](C(N)=O)C(C)C)C(C)C)C(C)C)C(C)C)C(C)C)C(C)C)C(C)C [VCRKPVVCRKPVVCRKPVVCRKPV]
MIC [16]: > 64 µM
MIC [17]: 8 µM (≈ 22 µg/mL)
MIC [18]: ≥ 64 µM
MIC [4]: > 64 µM
MIC [14]: > 64 µM
MIC [19]: ≥ 64 µM
MIC [20]: 8 µM (≈ 22 µg/mL)
MIC [21]: 8 µM (≈ 22 µg/mL)
MIC [22]: 8 µM (≈ 22 µg/mL)
MIC [23]: ≥ 64 µM
MIC [24]: > 64 µM
MIC [25]: > 64 µM

CC(C)C[C@H](NC(=O)[C@H](CCCCN)NC(=O)[C@H](CCCN=C(N)N)NC(=O)[C@H](Cc1ccccc1)NC(=O)[C@H](Cc1ccccc1)NC(=O)[C@H](CCCCN)NC(=O)[C@H](CCCCN)NC(=O)[C@H](Cc1ccccc1)NC(=O)[C@H](CCCN=C(N)N)NC(=O)[C@H](CCCCN)NC(=O)[C@@H](N)C(C)C)C(=O)N[C@@H](CCCCN)C(=O)N[C@@H](CCCCN)C(=O)N[C@@H](CO)C(=O)N[C@H](C(=O)N[C@@H](CCCCN)C(=O)N[C@@H](CCCCN)C(N)=O)C(C)C [VKRFKKFFRKLKKSVKK]
MIC [26]: 29.1 µM (≈ 64 µg/mL)
MIC [14]: 58.3 µM (≈ 128 µg/mL)
MIC [6]: 7.29 µM (≈ 16 µg/mL)
MIC [27]: 29.1 µM (≈ 64 µg/mL)
MIC [7]: 29.1 µM (≈ 64 µg/mL)
MIC [28]: 1.82 µM (≈ 4 µg/mL)
MIC [29]: 29.1 µM (≈ 64 µg/mL)
MIC [21]: 3.64 µM (≈ 8 µg/mL)
MIC [9]: 0.911 µM (≈ 2 µg/mL)
MIC [12]: ≥ 58.3 µM

CC(C)C[C@H](NC(=O)[C@H](CCCCN)NC(=O)[C@H](CCCN=C(N)N)NC(=O)[C@H](Cc1ccccc1)NC(=O)[C@H](Cc1ccccc1)NC(=O)[C@H](CCCCN)NC(=O)[C@H](CCCCN)NC(=O)[C@H](Cc1ccccc1)NC(=O)[C@H](CCCN=C(N)N)NC(=O)[C@H](CCCCN)NC(=O)[C@@H](N)C(C)C)C(=O)N[C@@H](CCCCN)C(=O)N[C@@H](CCCCN)C(=O)N[C@@H](CO)C(=O)N[C@H](C(=O)N[C@@H](CCCCN)C(N)=O)C(C)C [VKRFKKFFRKLKKSVK]
MIC [26]: 31 µM (≈ 64 µg/mL)
MIC [14]: 61.9 µM (≈ 128 µg/mL)
MIC [6]: 7.74 µM (≈ 16 µg/mL)
MIC [27]: 31 µM (≈ 64 µg/mL)
MIC [7]: 31 µM (≈ 64 µg/mL)
MIC [28]: 1.93 µM (≈ 4 µg/mL)
MIC [29]: 31 µM (≈ 64 µg/mL)
MIC [21]: 1.93 µM (≈ 4 µg/mL)
MIC [9]: 0.967 µM (≈ 2 µg/mL)
MIC [12]: 31 µM (≈ 64 µg/mL)

CC[C@H](C)[C@H](NC(=O)[C@H](CCCCN)NC(=O)[C@H](CCCCN)NC(=O)[C@H](CC(C)C)NC(=O)[C@@H](NC(=O)[C@H](CCCCN)NC(=O)[C@H](CCCCN)NC(=O)[C@H](Cc1c[nH]c2ccccc12)NC(=O)[C@H](CC(N)=O)NC(=O)[C@@H](N)C(C)C)C(C)C)C(=O)N[C@H](C(=O)N[C@@H](CCCCN)C(=O)N[C@H](C(=O)N[C@@H](C)C(=O)N[C@@H](CCCCN)C(N)=O)C(C)C)[C@@H](C)CC [VNWKKVLKKIIKVAK]
MIC [30]: 0.7 µM (≈ 1.26 µg/mL)
MIC [14]: 15.6 µM (≈ 28 µg/mL)
MIC [6]: 19 µM (≈ 34.1 µg/mL)
MIC [31]: 0.7 µM (≈ 1.26 µg/mL)

CC(C)[C@H](N)C(=O)N[C@@H](Cc1c[nH]c2ccccc12)C(=O)N[C@@H](CCCN=C(N)N)C(=O)N[C@@H](CCCN=C(N)N)C(=O)N[C@@H](Cc1c[nH]c2ccccc12)C(=O)N[C@@H](CCCN=C(N)N)C(=O)N[C@@H](CCCN=C(N)N)C(=O)N[C@@H](Cc1ccccc1)C(=O)N[C@@H](Cc1c[nH]c2ccccc12)C(=O)O [VWRRWRRFW]
MIC [32]: 12.5 µM (≈ 18.1 µg/mL)
MIC [33]: 12.5 µM (≈ 18.1 µg/mL)
MIC [34]: 12.5 µM (≈ 18.1 µg/mL)
MIC [35]: 6.25 µM (≈ 9.05 µg/mL)
MIC [36]: 12.5 µM (≈ 18.1 µg/mL)
MIC [37]: 6.25 µM (≈ 9.05 µg/mL)
MIC [38]: 12.5 µM (≈ 18.1 µg/mL)
